“Also recorded” adds a separate entry of the source.
How the values were obtained:
[1] = tested on: HeLa; experiment: In vitro proliferation, HeLa cells; format: cell-based
Description: (§1) Å6 was also tested for its ability to inhibit the proliferation of cells other than endothelial cells in vitro.

[2] = tested on: MDA-MB-231 human breast cancer cells; experiment: MDA-MB-231 GFP xenograft model; design: species or system mice; details: mouse, in vivo
[3] = tested on: rat breast cancer line Mat B III; experiment: Matrigel invasion assay, Mat B-III cells; format: cell-based; details: FIG. 1 (5 μM), FIG. 7, FIG. 8
Description: (§2) Several peptides were tested for anti-invasive capacity in a Matrigel® invasion assay system as indicated above (Kleinman et al., supra; Parish et al., supra). Several invasive human tumor lines (PC-3, MDA-MB-231) and non-human tumors (3LL, Mat B-III) were examined. The rat breast cancer line Mat B III and the human prostate cancer line PC-3 were initially used.
(§3) Tumor cells (5×10^5/mL, in a volume of 200 μL) in serum-free RPMI 1640 medium were added to a disposable transwell invasion chamber coated with Matrigel® (Becton Dickinson, Lincoln Park, N.J.). The invasion chambers were placed in 24-well tissue culture plates filled with serum-free RPMI-1640 and the plates were placed in an atmosphere of 5% CO2 in humidified air at 37° C. for 48-72 hours. The chambers were then removed, inverted, and the cells which had invaded (and now appeared on the bottom face of the invasion chamber) were fixed and stained using Diff-Quick® (Scientific Products). Cells were counted in 10 different fields on each filter and an average obtained.

[4] = tested on: SMC (aortic smooth muscle cells); experiment: In vitro proliferation, SMC; format: cell-based
Description: as §1

[5] = tested on: PC-3 and Mat B III tumor cells
[6] = tested on: MDA-MB-231 human breast cancer cells; experiment: MDA-MB-231 GFP xenograft model; format: in vivo, mice
Description: Nude mice (n=5 per group) were challenged with 2×10^5 tumor cells co-injected into the mammary fat pad of the mice with Matrigel. […] Control animals received vehicle (PBS) only.
These cells were first transfected with green fluorescent protein (GFP) to simplify the detection and visualization of metastases.
The tumor cells (5×10^5) were suspended in 0.1 mL of Matrigel and injected into the mammary fat pad of female BALB/c nu/nu mice. Treatment (75 mg/kg/day) was initiated when the tumors were palpable (10 mm^3, approximately 4 weeks after inoculation of tumor cells) and continued for 5 weeks. Tumor volumes were determined twice per week using caliper measurements. The animals were euthanized at the end of the 5th week of treatment, necropsied and examined for macroscopic metastases. Sections prepared from LNs, lung, liver, spleen and kidney were analyzed for microscopic dissemination of tumor cells using fluorescence microscopy to detect GFP-positive foci.
Macroscopic metastases were enumerated and their size measured with calipers (Table I below). Microscopic dissemination of tumor cells was quantitated by counting GFP-positive foci in representative sections from lung, liver, kidney and spleen.
Macrometastases were determined by excising involved LNs and determining the tumor volume by caliper measurement. Microscopic tumor foci were quantitated by sectioning and fixing target organs, then visualizing GFP-labeled cells using fluorescence microscopy (at 200× enlargement). The number of disseminated tumor foci represents the average of 5 fields per section from 3 different sections per organ.

[7] = mouse, in vivo, iv, 37.5 mg/kg
Description: Protein binding studies are presently underway.
Pharmacokinetic analysis was carried out by Gilbert Lam, MicroConstants.

[8] = tested on: human prostate cancer line PC-3; experiment: Matrigel invasion assay, PC-3 cells; format: cell-based; details: 5 μM (FIG. 1, FIG. 2)
Description: as §2, §3

[9] = target: uPA (Homo sapiens, UniProt P00749); experiment: uPA activity / activation of plasminogen; format: biochemical
[10] = tested on: U87; experiment: In vitro proliferation, U87 cells; format: cell-based, human
Description: as §1
Anti-angiogenic therapy is expected to produce both anti-proliferative and pro-apoptotic effects that would “prime” the tumor chemotherapy with these alkylating agents. The proliferative index in the U87 tumors was evaluated using Ki-67 staining followed by digitization of the staining intensity and quantitation.

[11] = target: scuPA-suPAR complex (Homo sapiens, UniProt P00749); experiment: Clot lysis assay ([125I] fibrin clots); format: biochemical; details: 30 minutes after initiation of clot lysis (FIG. 3)
Description: Fibrin clots were formed by supplementing plasma with [^125I] fibrinogen. Clotting was initiated by adding thrombin and calcium to the plasma mixture. Clots were washed to remove any free radioactivity, plasminogen and the activator to be tested were added to the clot and the release of [^125I] fibrin degradation products was monitored. The data presented in this figure is at 30 minutes after initiation of clot lysis. scuPA-suPAR: dose response with Å6 on clot lysis by scuPA-suPAR complex; scuPA: dose response on clot lysis by scuPA alone; scuPA/suPAR+scrambled pep: dose response with a scrambled version of Å6 (Ac-[sequence]-Am) (SEQ ID NO: 10).

[12] = tested on: CHO; experiment: In vitro proliferation, CHO cells; format: cell-based
Description: as §1

[13] = tested on: Mat B-III tumors; experiment: Rat syngeneic Mat B-III breast cancer model; format: in vivo; details: 75 mg/kg/day IP b.i.d.
[14] = average of 5 fields per section from 3 sections

In the case of “Ac-KPSSPPEE-NH2 [Å6, CH3CO-Lys-Pro-Ser-Ser-Pro-Pro-Glu-Glu-NH2]”, the “anti-proliferative effect, HeLa” value [1] is reported as “No anti-proliferative effects”, the “efficacy on tumors staged to 50-100 mm^3 prior to initiating treatment” value [2] is reported as “ineffective” and the “invasion of Mat B-III cells through Matrigel” value [3] is reported as “optimal; also recorded: inhibits the invasion”. For the same substance, the “invasion of Mat B-III cells through Matrigel” value ([3]; listed as Ac-KPSSPPEE-Am) was “inhibited the invasion”, the “anti-proliferative effect, SMC” value [4] was “No anti-proliferative effects” and the “cytotoxicity to the cells” value [5] was “not cytotoxic”. The “inhibition of cell proliferation” value ([5]; tumor cells of the invasion assay) was “nor did it inhibit cell proliferation”, the “growth of primary challenge tumors” value ([6]; IP, 1 mg bid, started when tumor nodules palpable (FIG. 15)) was “inhibits the growth” and the “Disseminated GFP-positive Tumor Foci, Liver” value [6, 14] was 3.11 ± 0.14. For the same substance, the “Disseminated GFP-positive Tumor Foci, Lung” value [6, 14] was 2.09 ± 0.30, the “Disseminated GFP-positive Tumor Foci, Spleen” value [6, 14] was 28.30 ± 2.80 and the “Macroscopic Metastases, Lungs, Number” value ([6]; end of 5th week of treatment) was 1 ± 0. The “Macroscopic Metastases, Lymph Nodes, Number” value ([6]; end of 5th week of treatment) was 1.2 ± 0.2, the “Macroscopic Metastases, Lymph Nodes, Size” value ([6]; end of 5th week of treatment) was 7 ± 3 mm^3 and the “single foci versus larger colonies in organ sections” value ([6]; liver and lungs) was “greater number of single foci”. The “Factor VIII-positive hot spots in tumor sections” value ([6]; mouse, in vivo) was “decrease”, the “TUNEL-positive foci in tumor sections” value ([6]; mouse, in vivo) was “significant increase” and the clearance [7] was 33.3 mL/min/kg. For the same substance, the half-life [7] was 12 min, the “in vitro invasion of PC-3 cells in a Matrigel system” value [8] was “inhibited the invasion” and the “effect on the activity of uPA directly” value [9] was “did not affect”. For the same substance, the “inhibition of the activation of plasminogen” value [9] was “no effect”, the solubility was over 100 mg/mL and the “anti-proliferative effect, U87” value [10] was “No anti-proliferative effects; also recorded: did not inhibit”. The “potentiation of the anti-proliferative activity of CDDP against U87 cells” value [10] was “did not potentiate”, the “potentiation of the pro-apoptotic activity of CDDP” value [10] was “nor did it potentiate” and the “scuPA-suPAR mediated clot lysis” value [11] was “inhibits”. For the same substance, the “anti-proliferative effect, CHO” value [12] was “No anti-proliferative effects”, the “macroscopic metastasis (number of macroscopic foci)” value [13] was “continued to be suppressed; also recorded: inhibited” and the “tumor growth (volume of primary tumor)” value [13] was “inhibits”.
